The source of these data is patent US8575211B2, “Synergistic combination of analgesic compounds” (Biocodex, priority 2008, dated 2013).

The subject of assay [1] is abdominal cramps induced in mice by acetic acid. Nature of the assay: abdominal cramps induced in mice by intraperitoneal acetic acid, products by the subcutaneous route. The assay is classed as in vivo. Particulars: for ED50: Mus musculus, product alone, subcutaneous, 30 min before acetic acid i.p., read-out: ED50 (dose producing 50% reduction in the number of cramps). On the procedure: The analgesic effect of a nefopam-ibuprofen combination was studied in the model of abdominal cramps induced in mice by the intraperitoneal administration of acetic acid. This model of pain induced by a chemical substance corresponds to acute, visceral, inflammatory pain. Male CD1 mice (C. River breed) weighing from 25 to 30 grams are used after an acclimatization of at least 7 days in the animal facility (t°=22±2; hygrometry=50±20%; food […]-darkness: […])). On the day of the experiment, the non-fasting mice are weighed, marked and divided at random into groups of 10. The acetic acid solution (Sigma) is prepared at 0.6% (0.1 ml/10 g) i.e. 60 mg of acetic acid in 10 ml of NaCl at 0.9%. At t=0, the mouse receives the product under study or the carrier liquid by the subcutaneous route (0.1 ml/10 g). At t=30 minutes, the acetic acid is injected by the intraperitoneal route (0.1 ml/10 g). A count is taken of the number of abdominal cramps from 5 to 20 minutes after the injection of acetic acid. Clear abdominal cramps characterized by stretching of the hind paws and/or hollowing of the flanks with writhing are regarded as positive. Nefopam hydrochloride (Biocodex, lot 38) (referred to hereinafter simply as nefopam) is dissolved in distilled water or in NaCl at 0.9%. The ibuprofen (Sigma, ref 1-4883) is suspended in Tween 80 at 1%. The test used is a variance analysis based on 3 groups and a Student's t test for 2 groups. The treated group(s) that differ(s) from the control group is (are) then determined. The effective doses for 50% antinociceptive effect (ED50) are calculated using the PharmToolsPro program (version 1.1.27, […] Group Inc.) in accordance with the Tallarida (2000) method Drugs synergism and dose-effect data analysis CRC Press). At least 10 mice are used for each dose, and at least 3 doses are used to determine the dose-response curve. The dose that produces 50% antinociceptive effect (50% reduction in the number of cramps) is calculated by a standard linear regression analysis of the dose-response curve. The interaction is evaluated by an isobolographic analysis of the co-administration of a combination of doses at a fixed ratio according to Tallarida (2000) op. cit., Tallarida et al. (1989) Life Sci. 45:947-961 and Tallarida et al. (1997) Life Sci. 61:PL417-PL425. The isobologram is constructed by joining the ED50 of the ibuprofen with that of the nefopam in order to obtain the additivity line. The ED50 of the combination is determined by linear regression analysis of the dose-response curve and it is compared by at test with a theoretical additive ED50 obtained using the PharmToolsPro software.

Assay [2] has the same test system. Conditions: oral route, cited from earlier work.

The structures appear in SMILES notation. Counter-ions that a name gives are not always drawn. Like-named read-outs stand apart in the source and are kept apart here. Bounds are passed on as bounds.

The term ED50 denotes the dose at which the effect has come halfway, by size or by number of responders. `CC(C)Cc1ccc(C(C)C(=O)O)cc1` (stereo not shown) [Ibuprofen, ibuprofen]: the ED50 is 18.6 ± 2.4 mg/kg in assay [1] and 95 mg/kg in assay [2] (Jones et al. (2005)). For the same compound, the “% variation of number of cramps” value was “+7%” in assay [1] (ibuprofen 1 mg/kg s.c.); “+14%” in assay [1] (ibuprofen 3 mg/kg s.c.); −29% in assay [1] (ibuprofen 10 mg/kg s.c.); −41% in assay [1] (ibuprofen 20 mg/kg s.c.); −68% in assay [1] (ibuprofen 30 mg/kg s.c.); −84% in assay [1] (ibuprofen 50 mg/kg s.c.). Also, the “% variation of number of cramps” value in assay [1] (ibuprofen 100 mg/kg s.c.) is recorded as −84%. Also, the “Number of cramps (mean ± sem)” value is given as 40.2 ± 3.2 in assay [1] (ibuprofen 1 mg/kg s.c.); 43.0 ± 6.6 in assay [1] (ibuprofen 3 mg/kg s.c.); 26.8 ± 3.9 in assay [1] (ibuprofen 10 mg/kg s.c.); 22.0 ± 2.0 in assay [1] (ibuprofen 20 mg/kg s.c.); 12.1 ± 2.7 in assay [1] (ibuprofen 30 mg/kg s.c.); 5.9 ± 1.3 in assay [1] (ibuprofen 50 mg/kg s.c.). In addition, in assay [1] (ibuprofen 100 mg/kg s.c.), the “Number of cramps (mean ± sem)” value was determined as 6.0 ± 1.4. Moreover, the “dose from which antinociceptive activity is significant” value in assay [2] (Dolezal & Kusiak (2002)) is recorded as at least 30 mg/kg.
As for `CN1CCOC(c2ccccc2)c2ccccc2C1` (stereo not shown) [Nefopam, Nefopam hydrochloride], in assay [1], the ED50 was determined as 2.4 ± 0.215 mg/kg. Moreover, the “% variation of number of cramps” value in assay [1] (nefopam 0.3 mg/kg s.c.) is listed as −9%; in assay [1] (nefopam 1.0 mg/kg s.c.), −25%; in assay [1] (nefopam 3.0 mg/kg s.c.), −55%; in assay [1] (nefopam 10.0 mg/kg s.c.) it was −81%; in assay [1] (nefopam 20.0 mg/kg s.c.), −98%. Besides, the “Number of cramps (mean ± sem)” value came to 33.6 ± 3.8 in assay [1] (nefopam 0.3 mg/kg s.c.); 28.0 ± 6.3 in assay [1] (nefopam 1.0 mg/kg s.c.); 16.7 ± 2.0 in assay [1] (nefopam 3.0 mg/kg s.c.); 7.1 ± 1.7 in assay [1] (nefopam 10.0 mg/kg s.c.); 0.6 ± 0.3 in assay [1] (nefopam 20.0 mg/kg s.c.).
